Data on 14 compounds can be found in patent US5705501A, “Certain substituted 1-aryl-3-morpholinopropanones to treat Alzheimer's Disease” (priority 1994, dated 1998).

Experiment [1] deals with paired helical filament epitopes (PHF-1) in MSN1a cells. The experiment in a line: Western blot of PHF-1 immunoreactivity in MSN1a cells treated with okadaic acid. It is filed as cell-based, human. The method, then:
FIG. 3 is a western blot showing PHF-1 immunoreactivity in lysates from control and chlorpromazine treated MSN cells treated with okadaic acid.
These compounds are effective at micromolar concentrations, with increased potency being evident when cells are treated prior to the addition of okadaic acid. The effective concentrations appear to be in the range at which these drugs are present in the brain following chronic treatment of psychiatric patients (Svendsen, CN, Psychopharmacology, 90, 316-321, 1986).
To determine the effect of chlorpromazine on the paired helical filament epitopes associated with AD, MSN1a cells expressing paired helical filament epitopes were incubated with […] chlorpromazine (CPZ) or a 0.2% DMSO vehicle control for 2 hours at 37° C. The cells were isolated by centrifugation, boiled for 10 minutes and […] protein from the resulting heat stable supernatants were loaded per lane on an SDS-PAGE gel. The gel was electrophoretically transferred to nitrocellulose membrane and then immunostained with PHF-1. […] The use of the MSN1a cell culture model for screening of novel compounds for therapeutic activity in AD is, therefore, quite warranted.
A general note: Immunoblotting shows a protein as a band on a membrane.

The subject of experiment [2] is TG3 immunoreactivity in OKA treated MSN1a cells. Nature of the experiment: Inhibition of TG3 immunoreactivity in OKA treated MSN1a cells (ELISA). The format is cell-based, human. The conditions noted are these: TG3 antibody; for IC50: Homo sapiens, 1 μM OKA, 0-64 μM drug, 2 hrs at 37° C. On the procedure: This assay can thus be used to determine whether a drug is capable of preventing or intervening in AD by attenuating the production of abnormally phosphorylated paired helical filament epitopes associated with AD. To determine whether a drug is capable of preventing or intervening in AD activity, the MSN1a cells containing tau and associated proteins are treated with OKA capable of greatly increasing immunoreactivity of the MSN1a cells with AD specific monoclonal antibodies. Then, either prior to or concomitantly with OKA treatment, a compound of the present invention is added to the culture. If the compound prevents the induction of the AD epitopes in the MSN1a cells treated with OKA, then it is said to have anti-AD activity. If the AD-specific antibodies are highly reactive with the neuroblastoma cells following OKA treatment in the presence of compound, then the compound is said to be ineffectual against AD.
The MSN1a human neuroblastoma line was subcloned from a population of MSN cells obtained from the laboratory of Dr. Peter Davies (Albert Einstein College of Medicine, New York, N.Y.). Cells were grown and maintained in flasks in RPMI 1640 medium, supplemented with 15% fetal calf serum, 100 U/ml penicillin, 100 U/ml Streptomycin, 0.5 ug/ml fungizone under 7.5% CO2 at 37° C.
Stock solutions of drugs were prepared by dissolving the anhydrous powders to final concentrations of either 10 or 20 mM in 50% aqueous or 100% dimethyl sulfoxide (DMSO), respectively. Working solutions of drugs were prepared by dilution of the stock solutions with Kreb's Ringer in Hepes buffer (KRH) (128 mM NaCl, 5 mM KCl, 2.5 mM CaCl2 1.2 mM MgSO4, 1 mM Na2 HPO4, 10 mM dextrose, 20 mM Hepes, pH 7.4). OKA is maintained as a 1 mM stock solution in DMSO prior to dilution to 4 μM in KRH.
MSN cells grown in 225 cm^2 flasks are removed from the incubator, their medium decanted and replaced with 50 ml pre-warmed KRH. The cells are harvested by scraping prior to sedimentation at 1000 rpm for 5 min. The supernatants are discarded and the cell pellets are resuspended, the cells counted and diluted to a density of 2×10^4 cells/[…]. The cells are then plated in a 96 well plate at 50 μl/well and 25 μl of 4 μM OKA and 25 μl of drug are then added to the appropriate wells; the entire 96 well plate is then incubated for 2 hrs at 37° C. Depending on the dilution of drug added, this yields individual wells containing 1 μM OKA, 0-64 μM drug and 2×10^4 cells in 0.26% DMSO in KRH. The incubation is terminated by the addition of 20 μl of 6X extraction buffer and immediate freezing at -80° C. for at least one hr. The 6X extraction buffer contains: 25 mM Tris-HCl, pH 7.6, 150 mM NaCl, 5 mM EDTA, 24 mM δ-glycerol phosphate, 10 μg/ml APMSF (4-amidinophenylmethane-sulfonyl flouride), and 2.5 μg/ml each of leupeptin, aprotinin, and pepstatin. The plates are thawed in a 37° C. water bath and 20 μl of cell lysate is added to a replica well in an ELISA plate that already contains 80 μl of coating buffer (15 mM Na2 CO3 and 35 mM NaHCO3, pH 9.6). The plates are allowed to coat overnight at 4° C. The plates are washed four times with deionized water and then blocked for 30 min at 37° C. with 200 μl/well pre-warmed 1% bovine serum albumin in 10 mM Tris-HCl, pH 7.4, 150 mM NaCl, 3 mM NaN3 (BSA-TBS). After the blocking solution is removed, 100 μl/well of an appropriate dilution of pre-warmed primary antibody (eg., TG3 or PHF-1) in BSA-TBS is added and incubated at 37° C. for 30 min. Incubation is terminated by washing four times in deionized water at which time 100 μl of an appropriate dilution of pre-warmed secondary antibody (conjugated to alkaline phosphatase) in BSA-TBS is added to each well in the ELISA plate. Incubation is performed for 30 min at 37° C. followed by washing 4 times with deionized water. […] of prewarmed chromogenic substrate (1 mg/ml p-nitrophenyl phosphate in 10% diethanolamine, 3 mM NAN3, 0.5 mM MgCl2, pH 9.8) is added and the plate incubated for 30 min at 37° C. […]
A general note: An ELISA detects its analyte on a solid surface through an enzyme-linked reagent.

Experiment [3] has as its system paired helical filament epitopes (TG3) in human brain tissue. The experiment in a line: Direct ELISA with TG3 antibody on post-mortem brain tissue of patients (second retrospective study). The format is in vivo. The conditions noted are these: chlorpromazine treated patients (Rx), N 51, summed absorbance. From the text: In a subsequent study, 51 additional patients were identified and the analysis was repeated as above using the TG3 antibody in an ELISA format. The results, summarized in Table 1, clearly reproduce and confirm the first retrospective study. Immunohistopathological studies carried out on several brain regions from these patients were consistent with these ELISA results. Taken together, these two studies provide evidence of the therapeutic benefit of chlorpromazine in AD and validate the use of the MSN1a model for the identification of therapeutically useful compounds for the treatment of AD.
*Signal is calculated by summing the means of duplicate absorbance
readings (direct ELISA using TG3 antibody) for 8 dilutions of all lysates
prepared by one to two serial dilutions.

Experiment [4] relates to PHF epitope (ADAP) levels in human brain tissue. Nature of the experiment: ALZ-EIA of PHF epitope (ADAP) levels in post-mortem brain tissue of chronically treated patients (first retrospective study). It is filed as in vivo. The conditions noted are these: chronically chlorpromazine treated patients (Rx), Brodman areas 10 and 38, ALZ-EIA. The method, then: FIG. 4A is a chart showing relative ADAP concentrations in Brodman Area 10 in Alzheimer's Disease patients, normal controls and patients treated with chloropromazine (Rx).
FIG. 4B is a chart showing relative ADAP concentrations in Brodman Area 38 in Alzheimer's Disease patients, normal controls and patients treated with chloropromazine (Rx).
Frontal and cortical brain tissue specimens obtained at autopsy from patients chronically treated with chlorpromazine were analyzed using the ALZ-EIA method previously described (Ghanbari, H A, et al, JAMA, 263, 2907, 1990). The results are shown in FIGS. 4A and 4B frontal (Broadman area 10) and temporal (Broadman area 38) regions, respectively. The brain tissue (post-mortem) from approximately the same number of (age matched) normal controls and Alzheimer's Disease patients were also analyzed and are presented in these figures as negative and positive controls (for normal and AD, respectively).

Experiment [5] deals with PHF-1 and TG3 epitopes in MSN1a cells. Nature of the experiment: Generation of Alzheimer brain specific epitopes in MSN1a cells. It is filed as cell-based, human. The conditions noted are these: epitopes absent or very low in untreated cells. The method, then:
Conditions were established which led to hyperphosphorylation of the proteins known to be involved in PHF formation. Using monoclonal antibodies PHF-1 and TG3 generated to human PHF preparations, the effects of a variety of manipulations of the phosphorylation state of these proteins were tested. These tests required that most of the abnormal epitopes recognized by these monoclonal antibodies in the human Alzheimer brain should be generated in the MSN1a cells. […] These epitopes are either absent or present at a very low level in untreated MSN1a cells.
Shown in FIG. 2A are bar graphs (percent of AD) of the ELISA immunoreactivity of brain preparations (AD or normal) to either PHF-1 or TG3. Shown in FIG. 2B are bar graphs (percent of MSN+) of the ELISA immunoreactivity of MSN1 a cell preparations (minus or plus okadaic acid) to either PHF-1 or TG3. The MSN1a cell preparations plus vs minus okadaic acid closely parallel the AD vs normal brain preparations. […] The cell culture system according to the invention in which epitopes characteristic of PHF can be readily generated and subsequently recognized by the specific Alzheimer brain specific antibodies provides an assay suitable for screening compounds for their ability to block the production of these phosphorylated epitopes.

Structures can show the parent of a compound that is named as a salt.

Regarding `CN(C)CCCN1c2ccccc2Sc2ccc(Cl)cc21` [Chlorpromazine, chlorpromazine], in experiment [1] (100 mM chlorpromazine, 2 hours at 37° C., PHF-1 immunostain), the “production of paired helical filament epitopes” value is “greatly decreased the production of paired helical filament epitopes”. The “inhibition of expression of PHF epitopes upon treatment of MSN1a cells with okadaic acid” value in experiment [1] (AD specific antibodies, FIG. 3) is reported as “markedly inhibit the expression of PHF epitopes”. Further, in experiment [2], the IC50 was around 70 µM and the “inhibition of production of aberrant phosphorylated epitopes in the MSN1a cell culture model (in words)” value is “effective in inhibiting the production of these aberrant phosphorylated epitopes”. The “SIGNAL ± SEM, Temporal” value in experiment [3] (Normal 0.00 ± 0.00, AD 17.55 ± 2.82) is 0.16 ± 0.11. Further, the “SIGNAL ± SEM, Frontal” value in experiment [3] (Normal 0.12 ± 0.12, AD 16.54 ± 2.59) is given as 0.12 ± 0.11. Also, in experiment [4], the “PHF epitope levels in brain” value is reported as “low PHF epitope levels similar to normal controls”.
Compound `CN1CCN(CCC(=O)c2ccccc2)CC1` [Example 1, 1-Phenyl-3-(4'-methyl-1'-piperazinyl)-1-propanone dihydrochloride] displayed an IC50 in experiment [2] of 12.4 µM.
Same read-out and setting: as for `CCCN1CCN(CCC(=O)c2cccc(C)c2)CC1` [Example 5, 1-(m-Methylphenyl)-3-(4'-propyl-1'-piperazinyl)-1-propanone dihydrochloride], the figure is 15.8 µM; as for `Cc1cccc(C(=O)CCN2CCOCC2)c1` [Example 9, 1-(m-Methylphenyl)-3-(4'-morpholinyl)-1-propanone hydrochloride], 5.4 µM; as for `COc1ccccc1C(=O)CCN1CCOCC1` [Example 13, 1-(o-Methoxyphenyl)-3-(4'-morpholinyl)-1-propanone hydrochloride], 9.1 µM.
Take `O=C(CCN1CCOCC1)c1cc(Cl)ccc1Cl` [Example 17, 1-(2",5"-Dichlorophenyl)-3-(4'-morpholinyl)-1-propanone hydrochloride]: in experiment [2], the IC50 was 15.8 µM.
On the same count and under the same terms, the result for `CN1CCN(CCC(=O)c2ccccc2F)CC1` [Example 23, 1-(o-Fluorophenyl)-3-(4'-methyl-1'-piperazinyl)-1-propanone dihydrochloride] reads 13.2 µM.
Same read-out and setting: as for `CC1CN(CCC(=O)c2cccc([N+](=O)[O-])c2)CC(C)N1` (centres unmarked) [Example 26, 1-(m-Nitrophenyl)-3-(2',6'-dimethyl-4'-piperazinyl)-1-propanone dihydrochloride], the figure is 7.3 µM; as for `O=C(CCN1CCOCC1)c1cccc([N+](=O)[O-])c1` [Example 30, 1-(m-Nitrophenyl)-3-(4'-morpholinyl)-1-propanone hydrochloride], 5.9 µM; as for `CN(c1cccc(C(=O)CCN2CCOCC2)c1)S(C)(=O)=O` [Example 34, 1-[m-(N-Methyl-N-methylsulfonylamino)phenyl]-3-(4'-morpholinyl)-1-propanone hydrochloride], 7.5 µM.
Same read-out and setting: as for `O=C(CCN1CCOCC1)c1cccc(Cl)c1` [Example 38, 1-(m-Chlorophenyl)-3-(4'-morpholinyl)-1-propanone hydrochloride], the figure is 5.8 µM; as for `O=C(CCN1CCOCC1)c1ccc(Br)cc1` [Example 42, 1-(p-Bromophenyl)-3-(4'-morpholinyl)-1-propanone hydrochloride], 6.4 µM; as for `CC1CN(CCC(=O)c2ccccc2)C(C)CN1CCC(=O)c1ccccc1` (centres unmarked) [Example 45, 1,4-Bis-(3'-Phenylpropane-3'-one-1'-yl)-2,5-dimethylpiperazine dihydrochloride], 11.4 µM.
Regarding `C=C1[C@@H](O)[C@@H]2O[C@]3(CC[C@H](/C=C/[C@@H](C)[C@@H]4CC(C)=C[C@@]5(O[C@H](C[C@@](C)(O)C(=O)O)CC[C@H]5O)O4)O3)CC[C@H]2O[C@@H]1[C@@H](O)C[C@H](C)[C@H]1O[C@@]2(CCCCO2)CC[C@H]1C` [okadaic acid], the “generation of the epitopes associated with Alzheimer brain specific monoclonal antibodies” value in experiment [5] is listed as “found to generate the epitopes”.

As usually defined, the IC50 is the concentration needed to halve the response being measured. High values mean weaker potency in that assay, low ones greater potency in that assay.
